# Test results as given in US9440973B2, “Pyrido[3,4-d]pyrimidine-2,4(1H,3H)-dione derivatives” (Hydra Biosciences, Inc., priority 2014, dated 2016).
# Target: T1, TRPC5 channel (Homo sapiens, UniProt Q9UL62)
# T1 construct: expressed in transfected cells; host or cells: HEK293/TREx (Invitrogen), tetracycline-induced
# T1 sequence (Q9UL62 1-973): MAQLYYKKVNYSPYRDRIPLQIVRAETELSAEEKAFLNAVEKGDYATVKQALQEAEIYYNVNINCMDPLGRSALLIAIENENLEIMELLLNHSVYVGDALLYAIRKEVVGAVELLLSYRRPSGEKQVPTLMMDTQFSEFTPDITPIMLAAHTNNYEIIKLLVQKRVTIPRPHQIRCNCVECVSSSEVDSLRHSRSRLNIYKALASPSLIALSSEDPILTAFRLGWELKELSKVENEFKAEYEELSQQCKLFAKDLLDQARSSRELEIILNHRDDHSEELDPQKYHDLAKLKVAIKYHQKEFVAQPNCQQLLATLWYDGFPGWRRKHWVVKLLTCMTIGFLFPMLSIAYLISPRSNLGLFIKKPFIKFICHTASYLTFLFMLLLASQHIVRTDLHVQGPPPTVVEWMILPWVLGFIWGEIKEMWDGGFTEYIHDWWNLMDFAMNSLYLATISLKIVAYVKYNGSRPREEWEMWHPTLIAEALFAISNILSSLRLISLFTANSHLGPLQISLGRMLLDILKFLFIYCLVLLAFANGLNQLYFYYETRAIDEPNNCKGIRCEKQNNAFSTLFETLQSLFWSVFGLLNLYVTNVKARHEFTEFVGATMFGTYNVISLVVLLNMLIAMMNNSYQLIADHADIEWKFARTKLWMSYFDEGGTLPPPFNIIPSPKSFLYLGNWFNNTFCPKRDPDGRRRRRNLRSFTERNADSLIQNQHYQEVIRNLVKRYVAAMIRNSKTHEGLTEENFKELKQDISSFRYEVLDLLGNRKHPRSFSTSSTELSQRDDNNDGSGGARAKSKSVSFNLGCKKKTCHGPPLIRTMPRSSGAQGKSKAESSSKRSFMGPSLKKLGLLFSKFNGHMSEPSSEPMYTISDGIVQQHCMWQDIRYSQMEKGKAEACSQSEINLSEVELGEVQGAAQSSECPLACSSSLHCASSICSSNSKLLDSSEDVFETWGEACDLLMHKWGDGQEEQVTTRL
# Assay: High throughput screening assay: Fluo4 cell-based fluorescence Ca2+ influx assay
# Settings: HEK293/TREx cells inducibly expressing TRPC5, inhibition of [Ca2+]i rise after high-Ca2+ Ringer (14 mM Ca2+), triplicate, 0.027-20 μM
# From the text: The assay depended on detection of the rise in intracellular Ca2+ concentration ([Ca2+]i) following channel activation in cells inducibly expressing the TRPC5 channel. Ca2+ rise was quantified with the use of fluorescent Ca2+ indicators that were loaded into cells and thereafter indicated the [Ca2+]i Ca2+ influx followed activation of the TRPC5 channel. Compounds inhibiting the [Ca2+]i rise were considered hits for further investigation.
# The commercially available HEK293/TREx line (Invitrogen) was stably transfected with a TRPC5 construct and screened by conventional calcium imaging to find clones with TRPC5 expression following stimulation with 1 μg/ml tetracycline. These cells were maintained in the growth medium recommended by the manufacturer supplemented with 100 μg/ml hygromycin to promote retention of the TRPC5 construct. After growing to near confluency, cells were plated at a density of ˜35,000 cells/well in 384 well CellBind plates (Corning) in the presence of 1 μg/ml tetracycline, and allowed to grow for 20-30 hrs. A nearly confluent monolayer resulted. Cells were then loaded with Ca2+ dye: Fura-2/AM or Fluo4/AM was added to the wells to a final concentration of 4 μM or 0.5 μM, respectively, and incubated for 80 min or 60 min, respectively, at room temperature. Supernatant was then removed from the cells by inverting plates with a sharp flick, and 25 μl Hank's Balanced Salt Solution (HBSS; 0.185 g/l D-glucose, 0.9767 g/l MgSO4 (anhydrous), 0.4 g/l KCl, 0.06 g/l KH2PO4 (anhydrous), 0.35 g/l NaHCO3, 8.0 g/l NaCl, and 0.04788 g/l Na2HPO4 (anhydrous); pH 7.4) was then added to each well. Following ˜0.5 hour for recovery from loading, cells were assayed using the Hamamatsu FDSS 6000 system, which permitted illumination alternately at 340 nm and 380 nm for Fura-2 experiments, or at 485 nm for Fluo4 experiments. Frames were acquired at a rate of 0.2 Hz. During the assay, the plates were continuously vortexed, with pipette mixing of wells following addition of each reagent. For the screening assay, 26 μl of a diluted compound stock (at 50 μM) was added to each well for 2 minutes following the collection of a short (4 frame) baseline. 13 μl 62 mM high-Ca2+ Ringer solution (4.17 ml of normal ringer (with 2 mM Ca2+) plus 5.83 ml of isotonic calcium ringer (105 mM Ca2+; in this ringer all sodium has been replaced with calcium)) was then added to each well, achieving a final concentration of 14 mM Ca2+ and 10 μM test compound. Data was collected for ˜3 minutes following addition of high Ca2+ Ringer, where the fluorescent intensity (for Fluo4) and the F340/F380 ratio (for Fura-2) were proportional to the [Ca2+]i Negative controls consisted of HEK293/TREx TRPC5 cells exposed to high Ca2+ solution, but no compound. Positive control conditions consisted of addition of 2-APB, a promiscuous blocker of TRPC5 and other channels, to columns 23 and 24 of the plates, to a final concentration of 200 μM. These controls defined a screening window, and “hits” were defined as those compounds inhibiting the fluorescence response by at least 40%. IC50 values were determined for compounds defined as “hits.” The Fluo4 cell-based fluorescence assay was used to determine the intracellular Ca2+ concentration in the presence of varying drug concentration. Final concentrations of compounds tested were 20 μM, 6.667 μM, 2.222 μM, 0.741 μM, 0.247 μM, 0.082 μM, and 0.027 μM. Compounds were tested in triplicate at all concentrations. Standard software was used to fit IC50 curves. A value of NF was assigned when no IC50 curves could not be fit.
# Additionally or alternatively, efficacy can be represented as % inhibition in the presence (of a given concentration of compound) versus the absence of compound or in comparison to a control compound. For example, efficacy can be represented as % inhibition of ion flux in the presence versus the absence of compound.
row,SMILES,IC50 [µM]
1,"CC(C)c1ccccc1-c1cc2c(=O)n(CCCO)c(=O)n(C)c2cn1 [Compound 46, 3-(3-hydroxypropyl)-6-(2-isopropylphenyl)-1-methylpyrido[3,4-d]pyrimidine-2,4(1H,3H)-dione]",4.24
2,"Cn1c(=O)n(CCCO)c(=O)c2c(Cc3ccc(Cl)cc3)c(-c3ccc(Cl)cc3)ncc21 [Compound 47, 5-(4-chlorobenzyl)-6-(4-chlorophenyl)-3-(3-hydroxypropyl)-1-methylpyrido[3,4-d]pyrimidine-2,4(1H,3H)-dione]",1.61
3,"CC(C)CCc1c(-c2ccc(Cl)cc2)ncc2c1c(=O)n(CCCO)c(=O)n2C [Compound 48, 6-(4-chlorophenyl)-3-(3-hydroxypropyl)-5-isopentyl-1-methylpyrido[3,4-d]pyrimidine-2,4(1H,3H)-dione]",1.6

# Further lines, results first:
row,IC50 [µM],SMILES
1,2.36,"CC(C)c1ccccc1-c1ncc2c(c1Cc1ccc(Cl)cc1)c(=O)n(CCCO)c(=O)n2C [Compound 49, 5-(4-chlorobenzyl)-3-(3-hydroxypropyl)-6-(2-isopropylphenyl)-1-methylpyrido[3,4-d]pyrimidine-2,4(1H,3H)-dione]"
2,9.8,"CC(C)CCc1c(-c2ccccc2C(C)C)ncc2c1c(=O)n(CCCO)c(=O)n2C [Compound 50, 3-(3-hydroxypropyl)-5-isopentyl-6-(2-isopropylphenyl)-1-methylpyrido[3,4-d]pyrimidine-2,4(1H,3H)-dione]"
3,8.84,"Cn1c(=O)n(CCCO)c(=O)c2c(Cc3ccc(Cl)cc3)c(Oc3cccc(Cl)c3)ncc21 [Compound 51, 5-(4-chlorobenzyl)-6-(3-chlorophenoxy)-3-(3-hydroxypropyl)-1-methylpyrido[3,4-d]pyrimidine-2,4(1H,3H)-dione]"
4,4.18,"CC(C)CCc1c(-c2cccc(Cl)c2)ncc2c1c(=O)n(CCCO)c(=O)n2C [Compound 52, 6-(3-chlorophenyl)-3-(3-hydroxypropyl)-5-isopentyl-1-methylpyrido[3,4-d]pyrimidine-2,4(1H,3H)-dione]"
5,0.195,"Cn1c(=O)n(CCCO)c(=O)c2c(Cc3ccccc3)c(-c3cccc(OC(F)(F)F)c3)ncc21 [Compound 53, 5-benzyl-3-(3-hydroxypropyl)-1-methyl-6-(3-(trifluoromethoxy)phenyl)pyrido[3,4-d]pyrimidine-2,4(1H,3H)-dione]"

# Target: T1, TRPC5 channel
# Assay: Whole-cell patch clamp experiments on TRPC5 current
# Format: cell-based
# Settings: TRPC5-expressing HEK293 TREx cells, current activated by LaCl3, holding potential −40 mV, currents quantified at −80 mV and +80 mV
# From the text: Patch clamp experiments permit the detection of currents through the TRPC5 channel in the cell line described above. In normal whole-cell patch clamp recordings, a glass electrode is brought into contact with a single cell and a high-resistance (gigaohm) seal is established with the cell membrane. The membrane is then ruptured to achieve the whole-cell configuration, permitting control of the voltage of the cell membrane and measurement of currents flowing across the membrane using the amplifier attached to the electrode and resulting in the replacement of cytoplasm with the pipette solution. A perfusion system permits control of the extracellular solution, including the addition of blockers and activators of the current. The current can be activated by including 1.4 μM free Ca^2+ in the pipette (intracellular) solution, and 80 μM LaCl3 in the extracellular solution.
# TRPC5 cells were induced 20-48 hours, removed from growth plates, and replated at low density (to attain good single-cell physical separation) on glass coverslips for measurement. In some cases, cells were grown in low density overnight on glass coverslips. […] Currents elicited were quantified at −80 mV and +80 mV. The internal solution consisted of 140 mM cesium aspartate, 10 mM HEDTA, 2 mM CaCl2, 2.27 mM MgCl2 and 10 mM HEPES, pH 7.2, with 1,400 nM calculated free Ca^2+. […]
row,SMILES,IC50 [µM]
1,"CC(C)c1ccccc1-c1ncc2c(c1Cc1ccc(Cl)cc1)c(=O)n(CCCO)c(=O)n2C [Compound 49, 5-(4-chlorobenzyl)-3-(3-hydroxypropyl)-6-(2-isopropylphenyl)-1-methylpyrido[3,4-d]pyrimidine-2,4(1H,3H)-dione]",0.0388
